The values that follow come from ChEMBL document CHEMBL5634145, “Discovery of novel amidobenzimidazole derivatives as orally available small molecule modulators of stimulator of interferon genes for cancer immunotherapy” (Eur J Med Chem, 2023).

Data set [1] is described as follows: Agonist activity at STING (unknown origin).
A short description of data set [2]: Cytotoxicity against wild type human THP1-Dual cells assessed as cell viability incubated for 24 hrs by CellTiter 96 aqueous one solution assay relative to control. The data set is classed as toxicity, cell-based. Also noted: concentration or dose not given beside the values. The conditions noted are these: read-out: Activity.
Data set [3] in a line: Cytotoxicity against human THP1-Dual KO-STING cells assessed as cell viability incubated for 24 hrs by CellTiter 96 aqueous one solution assay relative to control. Type of data set: toxicity, cell-based. The conditions noted are these: read-out: Activity. The arrangement: concentration or dose not given beside the values.
Another data set concerns THP1-Dual. Kind of data set: Cytotoxicity against human THP1-Dual cells assessed as reduction in cell viability at 0 to 50 uM incubated for 24 hrs by CellTiter 96 aqueous one solution assay. The data set is classed as toxicity, cell-based. Conditions: dose 0-50 µM.
The subject of the next data set is RAW264.7. Briefly: Cytotoxicity against mouse RAW264.7 cells assessed as reduction in cell viability at 0 to 80 uM incubated for 24 hrs by CellTiter 96 aqueous one solution assay. The data set is classed as toxicity, cell-based. The conditions noted are these: raw264.7, 24 h, dose 0-80 µM.
The target in another data set is T1, Cytochrome P450 1A2 (Homo sapiens, UniProt P05177).
T1 sequence (P05177 whole entry): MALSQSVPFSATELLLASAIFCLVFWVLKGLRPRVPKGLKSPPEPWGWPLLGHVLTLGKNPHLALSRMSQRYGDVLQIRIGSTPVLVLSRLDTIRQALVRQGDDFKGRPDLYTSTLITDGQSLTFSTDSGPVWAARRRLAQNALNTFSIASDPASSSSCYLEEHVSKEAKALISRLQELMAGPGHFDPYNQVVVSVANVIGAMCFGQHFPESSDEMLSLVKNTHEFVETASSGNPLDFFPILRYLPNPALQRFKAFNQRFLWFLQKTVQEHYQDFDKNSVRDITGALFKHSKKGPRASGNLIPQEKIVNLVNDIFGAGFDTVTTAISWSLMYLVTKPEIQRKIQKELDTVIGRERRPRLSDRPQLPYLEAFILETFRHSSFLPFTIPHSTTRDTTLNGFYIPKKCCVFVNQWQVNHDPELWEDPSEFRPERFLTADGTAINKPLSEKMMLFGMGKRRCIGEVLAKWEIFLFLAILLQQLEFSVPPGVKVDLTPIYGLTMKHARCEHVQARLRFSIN
Kind of data set: Inhibition of CYP1A2 in human liver microsomes using phenacetin as substrate preincubated for 5 min followed by substrate and NADPH addition and measured after 20 mins by LC-MS/MS analysis. Type of data set: ADME, Microsome.

The next data set deals with Cytochrome P450 2C9 (Homo sapiens, UniProt P11712). Kind of data set: Inhibition of CYP2C9 in human liver microsomes using tolbutamide as substrate preincubated for 5 min followed by substrate and NADPH addition and measured after 20 mins by LC-MS/MS analysis. The data set is classed as ADME, Microsome. For orientation: Microsomes from liver hold many membrane-bound enzymes, among them those of drug oxidation.
Sequence of Cytochrome P450 2C9 (P11712 whole entry): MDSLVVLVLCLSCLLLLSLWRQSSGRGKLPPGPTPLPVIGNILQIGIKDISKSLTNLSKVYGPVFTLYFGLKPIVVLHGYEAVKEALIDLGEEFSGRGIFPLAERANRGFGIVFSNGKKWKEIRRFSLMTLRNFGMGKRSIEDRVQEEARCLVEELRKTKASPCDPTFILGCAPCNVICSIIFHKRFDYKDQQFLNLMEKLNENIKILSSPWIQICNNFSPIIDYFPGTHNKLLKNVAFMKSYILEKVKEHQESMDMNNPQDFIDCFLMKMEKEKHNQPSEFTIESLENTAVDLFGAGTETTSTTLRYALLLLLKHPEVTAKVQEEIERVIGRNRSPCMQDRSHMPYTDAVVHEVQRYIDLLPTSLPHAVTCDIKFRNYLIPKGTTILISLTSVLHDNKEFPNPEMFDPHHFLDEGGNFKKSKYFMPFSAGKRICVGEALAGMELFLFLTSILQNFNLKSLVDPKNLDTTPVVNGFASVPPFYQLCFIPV

For the next data set, the target named is Cytochrome P450 2C19 (Homo sapiens, UniProt P33261). Kind of data set: Inhibition of CYP2C19 in human liver microsomes using S-Mephenytoin as substrate preincubated for 5 min followed by substrate and NADPH addition and measured after 20 mins by LC-MS/MS analysis. The data set is classed as ADME, Microsome.
Sequence of Cytochrome P450 2C19 (P33261 whole entry): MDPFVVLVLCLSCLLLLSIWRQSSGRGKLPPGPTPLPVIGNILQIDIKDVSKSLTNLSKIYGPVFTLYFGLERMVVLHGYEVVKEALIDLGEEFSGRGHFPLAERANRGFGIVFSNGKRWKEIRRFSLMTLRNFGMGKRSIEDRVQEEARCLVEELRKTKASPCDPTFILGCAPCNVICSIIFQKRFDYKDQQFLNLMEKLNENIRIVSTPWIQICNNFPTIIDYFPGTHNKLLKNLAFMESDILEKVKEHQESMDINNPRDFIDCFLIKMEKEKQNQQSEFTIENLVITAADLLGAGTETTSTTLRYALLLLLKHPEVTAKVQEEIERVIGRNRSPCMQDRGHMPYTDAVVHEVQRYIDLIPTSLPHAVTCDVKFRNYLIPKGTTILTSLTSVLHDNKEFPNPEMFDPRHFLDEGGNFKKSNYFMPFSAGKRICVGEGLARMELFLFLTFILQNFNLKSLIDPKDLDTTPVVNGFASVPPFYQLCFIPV
The target of another data set is Cytochrome P450 2D6 (Homo sapiens, UniProt P10635). Kind of data set: Inhibition of CYP2D6 in human liver microsomes using dextromethorphan as substrate preincubated for 5 min followed by substrate and NADPH addition and measured after 20 mins by LC-MS/MS analysis. Type of data set: ADME, Microsome.
Sequence of Cytochrome P450 2D6 (P10635 whole entry): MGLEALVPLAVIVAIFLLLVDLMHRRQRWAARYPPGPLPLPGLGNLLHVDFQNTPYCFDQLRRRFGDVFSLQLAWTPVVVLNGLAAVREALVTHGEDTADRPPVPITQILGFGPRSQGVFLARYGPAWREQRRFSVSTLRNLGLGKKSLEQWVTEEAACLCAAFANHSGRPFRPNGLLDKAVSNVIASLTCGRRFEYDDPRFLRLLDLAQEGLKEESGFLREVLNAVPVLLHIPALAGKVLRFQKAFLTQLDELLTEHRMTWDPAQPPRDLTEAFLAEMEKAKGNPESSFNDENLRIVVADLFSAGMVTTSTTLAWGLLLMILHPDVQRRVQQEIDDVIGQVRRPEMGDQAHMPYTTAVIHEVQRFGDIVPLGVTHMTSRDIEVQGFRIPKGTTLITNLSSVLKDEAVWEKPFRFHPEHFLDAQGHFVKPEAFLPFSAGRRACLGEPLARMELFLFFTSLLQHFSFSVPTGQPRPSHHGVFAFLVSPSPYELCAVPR
Another data set deals with Cytochrome P450 3A4 (Homo sapiens, UniProt P08684). Kind of data set: Inhibition of CYP3A4 in human liver microsomes using […] as substrate preincubated for 5 min followed by substrate and NADPH addition and measured after 20 mins by LC-MS/MS analysis. The data set is classed as ADME, Microsome.
Sequence of Cytochrome P450 3A4 (P08684 whole entry): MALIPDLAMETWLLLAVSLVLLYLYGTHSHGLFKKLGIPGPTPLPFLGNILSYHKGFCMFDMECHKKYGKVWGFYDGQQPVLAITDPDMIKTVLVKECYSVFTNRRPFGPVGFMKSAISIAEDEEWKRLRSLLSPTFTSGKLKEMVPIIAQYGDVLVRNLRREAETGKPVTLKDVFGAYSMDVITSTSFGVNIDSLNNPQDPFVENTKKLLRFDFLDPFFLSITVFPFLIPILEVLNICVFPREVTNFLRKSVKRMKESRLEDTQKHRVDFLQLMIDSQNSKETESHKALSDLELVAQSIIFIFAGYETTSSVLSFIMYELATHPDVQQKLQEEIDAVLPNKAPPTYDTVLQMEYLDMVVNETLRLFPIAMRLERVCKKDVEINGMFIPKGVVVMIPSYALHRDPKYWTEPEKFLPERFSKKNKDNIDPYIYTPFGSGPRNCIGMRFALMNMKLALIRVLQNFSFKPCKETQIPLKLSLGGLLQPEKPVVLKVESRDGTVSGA
Data set [4] has as its target Voltage-gated inwardly rectifying potassium channel KCNH2 (Homo sapiens, UniProt Q12809). Kind of data set: Inhibition of hERG by non-electrophysiological analysis. The data set is classed as toxicity. In general terms: Block of hERG is tested as a sign of cardiac risk.
Data set [5] is described as follows: Metabolic stability at phase I in mouse liver microsomes assessed as remaining activity at 1 uM incubated for 30 mins in presence of NADPH by LC-MS/MS analysis. Type of data set: ADME, Microsome. The conditions noted are these: read-out: Stability.
Data set [6] in a line: Metabolic stability at phase I in human liver microsomes assessed as remaining activity at 1 uM incubated for 30 mins in presence of NADPH by LC-MS/MS analysis. The data set is classed as ADME, Microsome. Conditions: read-out: Stability.
The nature of data set [7]: Stability in mouse plasma assessed as remaining activity at 5 uM incubated for 4 hrs by LC-MS/MS analysis. Type of data set: ADME, cell-free. The conditions noted are these: read-out: Stability.
A short description of data set [8]: Stability in human plasma assessed as remaining activity at 5 uM incubated for 4 hrs by LC-MS/MS analysis. The data set is classed as ADME, cell-free. Conditions: read-out: Stability.
Data set [9] in a line: Plasma protein binding in mouse. Conditions: read-out: PPB (converted). Type of data set: ADME, cell-free.
Data set [10] in a line: Plasma protein binding in human. Type of data set: ADME, cell-free. The conditions noted are these: read-out: PPB (converted).
Data set [11] can be described thus: Half life in ICR mouse at 5 mg/kg, iv by LC-MS/MS analysis. The data set is classed as ADME, organism-based. The conditions noted are these: in vivo.
The nature of data set [12]: Half life in ICR mouse at 20 mg/kg, po administered via oral gavage by LC-MS/MS analysis. Type of data set: ADME, organism-based. Conditions: in vivo.
Data set [13] is described as follows: Tmax in ICR mouse at 20 mg/kg, po administered via oral gavage by LC-MS/MS analysis. Type of data set: ADME, organism-based. The conditions noted are these: in vivo.
The nature of data set [14]: Cmax in ICR mouse at 20 mg/kg, po administered via oral gavage by LC-MS/MS analysis. Type of data set: ADME, organism-based. The conditions noted are these: in vivo.
Data set [15] can be described thus: Volume of distribution at steady state in ICR mouse at 5 mg/kg, iv by LC-MS/MS analysis. The data set is classed as ADME, organism-based. Conditions: in vivo, read-out: Vdss.
A short description of data set [16]: Clearance in ICR mouse at 5 mg/kg, iv by LC-MS/MS analysis. Conditions: in vivo. The data set is classed as ADME, organism-based.
Data set [17] can be described thus: AUClast in ICR mouse at 5 mg/kg, iv by LC-MS/MS analysis. The data set is classed as ADME, organism-based. The conditions noted are these: in vivo.
Data set [18] is described as follows: AUClast in ICR mouse at 20 mg/kg, po administered via oral gavage by LC-MS/MS analysis. Type of data set: ADME, organism-based. Conditions: in vivo.
Data set [19] can be described thus: AUC (0 to infinity) in ICR mouse at 5 mg/kg, iv by LC-MS/MS analysis. Type of data set: ADME, organism-based. The conditions noted are these: in vivo.
The nature of data set [20]: AUC (0 to infinity) in ICR mouse at 20 mg/kg, po administered via oral gavage by LC-MS/MS analysis. Type of data set: ADME, organism-based. The conditions noted are these: in vivo.
A short description of data set [21]: Oral bioavailability in ICR mouse at 20 mg/kg administered via oral gavage by LC-MS/MS analysis. Type of data set: ADME, organism-based. The conditions noted are these: in vivo.
The nature of data set [22]: Toxicity in BALB/c mouse implanted with mouse 4T1 cells assessed as body weight loss at 16 mg/kg, po administrated every other day for 6 times and measured after 12 days. Type of data set: organism-based. Conditions: in vivo, 288 h, time 12 day.

Usually EC50 stands for the concentration giving half of the maximal effect. As usually defined, the IC50 is the concentration at which inhibition is half-maximal. For orientation: half-life means how long it takes for the measured level to halve. For orientation: Tmax means the time from dosing to the highest level. As usually defined, the Cmax is the maximum level reached in the sampled fluid or tissue. For orientation: clearance means the volume of plasma or blood freed of the substance per unit of time. The term AUC(0-t) denotes exposure summed from dosing to a finite time, without extrapolation to infinity. For orientation: AUC(0-inf) means total exposure, with the tail of the curve extrapolated. For orientation: bioavailability means the share of a dose that reaches the circulation, judged against a reference dose that is usually intravenous.

Sequence of Voltage-gated inwardly rectifying potassium channel KCNH2 (Q12809 whole entry): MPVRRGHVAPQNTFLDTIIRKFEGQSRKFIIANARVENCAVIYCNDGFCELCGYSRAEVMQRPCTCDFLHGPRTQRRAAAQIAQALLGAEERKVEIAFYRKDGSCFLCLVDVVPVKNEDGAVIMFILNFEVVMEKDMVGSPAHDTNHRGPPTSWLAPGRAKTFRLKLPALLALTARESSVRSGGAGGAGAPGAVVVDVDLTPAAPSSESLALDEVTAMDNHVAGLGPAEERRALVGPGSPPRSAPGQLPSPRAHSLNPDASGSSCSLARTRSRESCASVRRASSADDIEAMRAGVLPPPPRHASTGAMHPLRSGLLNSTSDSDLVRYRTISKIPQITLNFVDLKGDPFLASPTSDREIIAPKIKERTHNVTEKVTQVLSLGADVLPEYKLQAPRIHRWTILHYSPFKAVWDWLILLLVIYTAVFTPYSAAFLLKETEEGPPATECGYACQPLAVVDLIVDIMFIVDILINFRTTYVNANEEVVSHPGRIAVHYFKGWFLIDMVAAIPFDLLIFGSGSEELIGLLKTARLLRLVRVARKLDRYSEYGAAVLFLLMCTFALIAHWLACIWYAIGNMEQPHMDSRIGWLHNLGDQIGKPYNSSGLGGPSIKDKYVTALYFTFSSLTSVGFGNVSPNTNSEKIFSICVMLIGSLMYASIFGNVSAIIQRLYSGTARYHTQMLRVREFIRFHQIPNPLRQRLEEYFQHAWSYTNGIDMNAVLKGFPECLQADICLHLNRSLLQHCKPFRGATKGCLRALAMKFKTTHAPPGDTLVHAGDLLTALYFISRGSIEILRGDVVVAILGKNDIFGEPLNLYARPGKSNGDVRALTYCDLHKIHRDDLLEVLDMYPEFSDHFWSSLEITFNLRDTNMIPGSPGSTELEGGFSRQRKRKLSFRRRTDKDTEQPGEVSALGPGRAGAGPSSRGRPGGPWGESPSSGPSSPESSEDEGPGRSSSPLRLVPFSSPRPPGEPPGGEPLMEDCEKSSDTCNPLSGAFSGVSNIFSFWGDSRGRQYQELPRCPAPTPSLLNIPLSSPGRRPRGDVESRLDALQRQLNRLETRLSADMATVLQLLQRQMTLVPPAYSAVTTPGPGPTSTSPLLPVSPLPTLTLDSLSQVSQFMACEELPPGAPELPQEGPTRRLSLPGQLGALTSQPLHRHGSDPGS

`CCn1nc(C)cc1C(=O)/N=c1\[nH]c2cc(C(N)=O)ccc2n1C[C@@H](O)c1ccccc1` had an EC50 in [1] of 102 µM.
Take `Cc1ncccc1C(=O)Nc1nc2cc(C(N)=O)ccc2n1CCCCNC(=O)OC(C)(C)C`: the viability at 24 h in data set [2] came to 99.4%; in [3] it was 106%. Further, the Activity entry (in the data set with THP1-Dual; in the data set on RAW264.7; in [22]) was “Non-Toxic” throughout. The IC50 on Cytochrome P450 1A2 is above 100 µM; against Cytochrome P450 2C9, 28.3 µM; on Cytochrome P450 2C19 it was 8.8 µM; on Cytochrome P450 2D6, 16.5 µM; at Cytochrome P450 3A4, 10.5 µM; in [4], above 100 µM. The remaining at 0.5 h, 1 µM in [5] is 18.1%; in data set [6] it was 27.9%. In addition, the values for the remaining at 4 h, 5 µM in data set [7] and in data set [8] were 99.5% and above 99.9%, respectively. Further, the fraction unbound in data set [9] is 0.0624; in data set [10] it was 0.0211. The half-life in data set [11] was 669 min; in [12], 799 min. For the same molecule, in data set [13], the Tmax was 25.2 min. The Cmax in data set [14] came to 110 ng/mL. The Vd in data set [15] worked out at 11.7 L/kg. This molecule had a clearance in [16] of 95.5 mL/min/kg. For the same molecule, the exposure AUC(0-t) was 880 ng·h/mL in [17] and 180 ng·h/mL in data set [18]. Further, the area under the curve AUC(0-inf) in [19] turned out to be 900 ng·h/mL; in [20], 210 ng·h/mL. This molecule also had a bioavailability in data set [21] of 5.23%.
